SMILES strings stand for the structures.

Assay [1] can be described thus: Inhibition of GST-tagged NSD3 (247 to 398 residues) (unknown origin) /PWWP1 (unknown origin) protein-protein interaction incubated for 60 mins by TR-FRET assay. Also on record: species or system Homo sapiens.
The target of assay [2] is T1, Histone-lysine N-methyltransferase NSD2 (Homo sapiens, UniProt O96028).
T1 sequence (O96028 whole entry): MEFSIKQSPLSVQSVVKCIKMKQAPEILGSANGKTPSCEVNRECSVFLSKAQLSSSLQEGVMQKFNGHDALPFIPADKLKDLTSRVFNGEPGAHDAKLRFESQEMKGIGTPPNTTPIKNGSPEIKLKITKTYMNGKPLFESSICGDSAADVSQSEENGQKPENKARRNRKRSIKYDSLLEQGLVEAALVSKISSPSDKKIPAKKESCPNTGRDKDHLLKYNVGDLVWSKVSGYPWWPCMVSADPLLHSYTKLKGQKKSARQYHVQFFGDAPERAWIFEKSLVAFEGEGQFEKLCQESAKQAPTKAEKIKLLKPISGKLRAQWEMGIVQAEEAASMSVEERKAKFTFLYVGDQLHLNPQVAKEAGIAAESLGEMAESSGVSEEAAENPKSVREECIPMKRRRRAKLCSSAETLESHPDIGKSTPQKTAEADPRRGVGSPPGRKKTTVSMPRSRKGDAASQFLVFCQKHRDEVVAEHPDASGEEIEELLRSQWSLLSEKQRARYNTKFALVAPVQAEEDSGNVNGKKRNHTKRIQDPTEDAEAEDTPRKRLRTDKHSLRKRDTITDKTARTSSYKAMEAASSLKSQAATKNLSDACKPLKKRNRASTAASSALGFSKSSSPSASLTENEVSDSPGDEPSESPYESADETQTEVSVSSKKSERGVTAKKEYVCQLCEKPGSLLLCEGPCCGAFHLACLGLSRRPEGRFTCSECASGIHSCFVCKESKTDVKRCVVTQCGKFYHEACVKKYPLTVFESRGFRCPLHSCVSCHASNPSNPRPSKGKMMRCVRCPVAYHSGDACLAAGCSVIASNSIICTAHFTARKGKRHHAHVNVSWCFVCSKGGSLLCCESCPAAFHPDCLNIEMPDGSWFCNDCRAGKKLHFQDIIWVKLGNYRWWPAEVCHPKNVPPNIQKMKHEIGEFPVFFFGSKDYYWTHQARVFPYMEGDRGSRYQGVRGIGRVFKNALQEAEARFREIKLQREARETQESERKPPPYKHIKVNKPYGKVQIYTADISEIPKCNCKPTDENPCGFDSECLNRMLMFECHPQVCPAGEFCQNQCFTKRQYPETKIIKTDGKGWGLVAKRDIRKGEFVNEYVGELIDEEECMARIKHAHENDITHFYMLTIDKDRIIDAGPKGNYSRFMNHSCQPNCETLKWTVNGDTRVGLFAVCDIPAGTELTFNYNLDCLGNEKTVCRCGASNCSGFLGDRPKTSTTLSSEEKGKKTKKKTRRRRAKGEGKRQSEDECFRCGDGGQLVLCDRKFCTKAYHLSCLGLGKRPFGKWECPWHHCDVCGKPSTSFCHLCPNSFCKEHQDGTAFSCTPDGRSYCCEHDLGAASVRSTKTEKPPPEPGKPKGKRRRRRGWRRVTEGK
The assay can be described thus: Inhibition of MMSET (unknown origin).

For assay [3], the target named is T1, Histone-lysine N-methyltransferase NSD2. The assay can be described thus: Inhibition of NSD2 (unknown origin).
For assay [4] the target is unchanged. The assay can be described thus: Binding affinity to human biotinylated NSD2 (208 to 368 residues) expressed in Escherichia coli BL21(DE3) by SPR assay. On the technique in general: SPR reads the build-up and loss of mass on a sensor chip optically.
For assay [5] the target is unchanged. As to the kind of experiment: Inhibition of NSD2 (unknown origin) using H3K36 as substrate.
For assay [6], the target named is T2, Histone-lysine N-methyltransferase NSD3 (Homo sapiens, UniProt Q9BZ95).
T2 sequence (Q9BZ95 whole entry): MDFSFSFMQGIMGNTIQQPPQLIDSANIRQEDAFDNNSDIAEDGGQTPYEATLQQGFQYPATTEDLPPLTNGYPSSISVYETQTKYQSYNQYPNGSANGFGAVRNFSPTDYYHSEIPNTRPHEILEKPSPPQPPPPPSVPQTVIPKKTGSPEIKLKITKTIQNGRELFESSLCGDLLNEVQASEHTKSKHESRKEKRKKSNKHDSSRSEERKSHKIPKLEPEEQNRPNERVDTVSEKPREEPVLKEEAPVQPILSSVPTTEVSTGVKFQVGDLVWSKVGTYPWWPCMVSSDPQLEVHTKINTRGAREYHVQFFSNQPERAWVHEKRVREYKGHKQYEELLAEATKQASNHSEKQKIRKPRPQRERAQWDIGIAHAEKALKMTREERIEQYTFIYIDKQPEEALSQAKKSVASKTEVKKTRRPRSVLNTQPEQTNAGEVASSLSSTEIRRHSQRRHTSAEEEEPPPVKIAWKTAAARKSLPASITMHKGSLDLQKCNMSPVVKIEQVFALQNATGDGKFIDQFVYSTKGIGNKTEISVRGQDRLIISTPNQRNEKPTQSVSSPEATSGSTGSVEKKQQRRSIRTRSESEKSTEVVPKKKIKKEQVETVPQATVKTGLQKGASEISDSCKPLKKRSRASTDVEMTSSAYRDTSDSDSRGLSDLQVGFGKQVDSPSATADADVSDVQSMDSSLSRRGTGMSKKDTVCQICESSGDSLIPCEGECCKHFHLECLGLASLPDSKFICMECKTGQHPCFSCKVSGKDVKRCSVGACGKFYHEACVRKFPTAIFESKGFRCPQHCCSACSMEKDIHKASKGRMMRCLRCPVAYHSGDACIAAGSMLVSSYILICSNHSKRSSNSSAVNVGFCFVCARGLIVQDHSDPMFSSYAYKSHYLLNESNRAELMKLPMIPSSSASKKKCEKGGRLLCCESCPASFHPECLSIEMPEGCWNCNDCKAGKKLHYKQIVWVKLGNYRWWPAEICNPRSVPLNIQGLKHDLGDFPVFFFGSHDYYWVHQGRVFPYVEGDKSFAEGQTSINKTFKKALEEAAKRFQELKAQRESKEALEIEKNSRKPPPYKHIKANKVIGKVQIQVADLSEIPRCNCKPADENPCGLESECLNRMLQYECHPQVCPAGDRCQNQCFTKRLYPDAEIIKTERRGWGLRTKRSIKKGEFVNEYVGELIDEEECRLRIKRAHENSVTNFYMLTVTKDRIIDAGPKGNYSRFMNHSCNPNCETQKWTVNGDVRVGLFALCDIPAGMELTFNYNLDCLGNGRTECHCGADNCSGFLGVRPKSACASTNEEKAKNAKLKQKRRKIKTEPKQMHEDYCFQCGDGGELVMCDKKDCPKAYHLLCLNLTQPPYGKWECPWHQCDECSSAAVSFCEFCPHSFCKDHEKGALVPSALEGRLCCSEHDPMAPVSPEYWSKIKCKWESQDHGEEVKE
The assay can be described thus: Inhibition of NSD3 (unknown origin) using H3K36 as substrate.

Assay [7] addresses Histone-lysine N-methyltransferase, H3 lysine-36 specific (Homo sapiens, UniProt Q96L73). As to the kind of experiment: Inhibition of NSD1 (unknown origin) using H3K36 as substrate.
Assay [8] concerns the target T1, Histone-lysine N-methyltransferase NSD2. The assay can be described thus: Inhibition of NSD2 in human CGTH-W-1 cells assessed as reduction in H3K36me2 level incubated for 72 hrs by ELISA. Type of assay: cell-based.
Assay [9] has the same target. The assay can be described thus: Inhibition of NSD2 in human KMS-11-Par cells assessed as reduction in H3K36me2 level incubated for 72 hrs by ELISA. Format: cell-based.
The next assay relates to NCI-H2228. The assay can be described thus: Antiproliferative activity against human NCI-H2228 cells. Format: functional, cell-based.
A further assay has as its system MDA-MB-231. As to the kind of experiment: Antiproliferative activity against human MDA-MB-231 cells. Format: functional, cell-based.
The test system of a further assay is PC-3. As to the kind of experiment: Antiproliferative activity against human PC-3 cells. Type of assay: functional, cell-based.
The next assay has as its system SK-OV-3. As to the kind of experiment: Antiproliferative activity against human SK-OV-3 cells. Type of assay: functional, cell-based.
Assay [10] deals with T1, Histone-lysine N-methyltransferase NSD2. As to the kind of experiment: Inhibition of 15N-labeled NSD2 (953 to 1240 residues) (unknown origin) expressed in Escherichia coli BL21 DE3 using H3K36 as substrate incubated for 60 mins by Alphascreen assay.

Chain of Histone-lysine N-methyltransferase, H3 lysine-36 specific (Q96L73 whole entry): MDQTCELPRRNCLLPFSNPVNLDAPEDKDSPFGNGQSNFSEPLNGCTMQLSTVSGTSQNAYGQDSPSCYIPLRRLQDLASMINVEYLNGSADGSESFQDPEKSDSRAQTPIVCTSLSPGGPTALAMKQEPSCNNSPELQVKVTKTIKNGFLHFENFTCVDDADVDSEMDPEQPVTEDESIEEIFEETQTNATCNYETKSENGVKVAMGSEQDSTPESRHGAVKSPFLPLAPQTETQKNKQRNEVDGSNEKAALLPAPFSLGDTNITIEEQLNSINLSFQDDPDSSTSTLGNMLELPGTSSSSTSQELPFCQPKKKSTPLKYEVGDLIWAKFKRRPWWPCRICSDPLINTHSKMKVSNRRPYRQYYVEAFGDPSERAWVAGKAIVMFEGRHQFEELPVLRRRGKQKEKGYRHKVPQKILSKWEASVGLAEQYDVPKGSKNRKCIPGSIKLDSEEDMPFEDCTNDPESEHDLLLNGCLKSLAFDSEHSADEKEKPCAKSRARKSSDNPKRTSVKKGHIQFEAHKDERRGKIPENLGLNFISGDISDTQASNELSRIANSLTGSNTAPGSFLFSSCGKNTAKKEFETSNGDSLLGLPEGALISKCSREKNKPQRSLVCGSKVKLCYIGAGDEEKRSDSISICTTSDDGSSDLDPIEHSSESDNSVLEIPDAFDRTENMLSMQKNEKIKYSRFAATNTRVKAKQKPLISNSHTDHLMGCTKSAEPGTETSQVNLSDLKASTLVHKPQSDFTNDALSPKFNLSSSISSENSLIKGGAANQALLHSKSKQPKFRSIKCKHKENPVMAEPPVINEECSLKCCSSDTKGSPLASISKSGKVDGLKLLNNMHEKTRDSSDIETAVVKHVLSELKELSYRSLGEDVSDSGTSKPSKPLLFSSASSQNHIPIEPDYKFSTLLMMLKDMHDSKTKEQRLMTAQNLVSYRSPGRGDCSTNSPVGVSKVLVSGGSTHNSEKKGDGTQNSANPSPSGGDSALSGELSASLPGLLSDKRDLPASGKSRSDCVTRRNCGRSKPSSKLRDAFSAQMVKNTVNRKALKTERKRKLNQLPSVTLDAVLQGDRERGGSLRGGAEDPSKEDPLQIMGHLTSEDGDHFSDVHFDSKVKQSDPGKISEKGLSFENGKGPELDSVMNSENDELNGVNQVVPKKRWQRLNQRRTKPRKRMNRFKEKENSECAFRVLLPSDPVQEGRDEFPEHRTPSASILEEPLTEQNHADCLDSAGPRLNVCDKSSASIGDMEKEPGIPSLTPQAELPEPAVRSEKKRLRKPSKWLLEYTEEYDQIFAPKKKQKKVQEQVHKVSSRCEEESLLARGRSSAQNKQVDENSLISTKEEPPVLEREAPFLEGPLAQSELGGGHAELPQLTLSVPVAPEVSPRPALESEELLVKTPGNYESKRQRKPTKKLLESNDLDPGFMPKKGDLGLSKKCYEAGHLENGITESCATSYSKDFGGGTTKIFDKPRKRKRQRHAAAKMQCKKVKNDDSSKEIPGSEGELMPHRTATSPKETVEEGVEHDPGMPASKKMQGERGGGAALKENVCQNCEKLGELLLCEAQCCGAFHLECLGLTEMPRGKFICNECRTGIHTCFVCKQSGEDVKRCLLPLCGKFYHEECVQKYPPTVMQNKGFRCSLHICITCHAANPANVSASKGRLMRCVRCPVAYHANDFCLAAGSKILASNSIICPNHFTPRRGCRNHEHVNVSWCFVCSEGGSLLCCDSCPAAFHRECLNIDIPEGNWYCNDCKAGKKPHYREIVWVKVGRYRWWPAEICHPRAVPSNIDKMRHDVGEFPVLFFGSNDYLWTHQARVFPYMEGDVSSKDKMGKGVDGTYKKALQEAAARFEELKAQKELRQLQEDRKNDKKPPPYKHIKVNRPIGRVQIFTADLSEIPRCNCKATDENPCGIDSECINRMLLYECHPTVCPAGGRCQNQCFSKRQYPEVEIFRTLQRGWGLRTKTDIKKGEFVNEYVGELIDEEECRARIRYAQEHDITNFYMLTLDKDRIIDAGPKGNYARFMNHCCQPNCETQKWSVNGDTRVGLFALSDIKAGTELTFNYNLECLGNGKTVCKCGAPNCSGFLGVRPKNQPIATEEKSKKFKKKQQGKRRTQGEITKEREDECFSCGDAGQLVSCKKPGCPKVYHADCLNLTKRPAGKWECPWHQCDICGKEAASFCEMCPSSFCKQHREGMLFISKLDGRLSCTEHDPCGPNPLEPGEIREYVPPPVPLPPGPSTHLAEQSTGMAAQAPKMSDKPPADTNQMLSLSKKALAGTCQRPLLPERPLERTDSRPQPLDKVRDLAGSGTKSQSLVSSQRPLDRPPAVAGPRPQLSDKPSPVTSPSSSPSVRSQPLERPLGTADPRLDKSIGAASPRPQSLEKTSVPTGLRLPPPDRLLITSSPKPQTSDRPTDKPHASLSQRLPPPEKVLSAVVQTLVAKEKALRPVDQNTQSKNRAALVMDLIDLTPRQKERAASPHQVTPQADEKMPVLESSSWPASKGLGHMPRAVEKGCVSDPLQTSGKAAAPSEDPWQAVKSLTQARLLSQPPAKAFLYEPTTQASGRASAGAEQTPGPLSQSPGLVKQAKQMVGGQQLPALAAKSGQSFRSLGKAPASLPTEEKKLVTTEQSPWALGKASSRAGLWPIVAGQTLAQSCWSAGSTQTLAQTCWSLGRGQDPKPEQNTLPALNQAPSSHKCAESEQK

Broadly, the IC50 is the concentration that gives 50% inhibition. Consider `Cc1cc(CN)cc(C)c1-c1ncn(C)c1-c1ccnc2cc(F)ccc12`, for which the IC50 in assay [1] was determined as 0.203 µM.

For `NNc1nc2ccccc2nc1S`, the IC50 in assay [2] was less than 3 µM. In turn, `N#Cc1cccc(NC(=O)Nc2ccc3nnsc3c2)c1` yielded an IC50 in assay [3] of 7.5 µM. The term Kd denotes the free concentration of one partner at which half of the binding sites on the other are occupied at equilibrium, for simple one-to-one binding. Regarding `O=C1COc2cc(C(=O)N(Cc3cccs3)C3CC3)ccc2N1`, in assay [4], the Kd turned out to be 0.349 µM. The compound `C=CC(=O)Nc1cc(NC(=O)Nc2ccc3nnsc3c2)cc(C(=O)OC)c1` registered an IC50 in [3] of 8.1 µM. Regarding `O=C(NCCCN(Cc1nc2sc3c(c2c(=O)[nH]1)CCCC3)Cc1nc2sc3c(c2c(=O)[nH]1)CCCC3)c1cc2ccccc2c(=O)o1`, the results for the IC50 in assay [5], in assay [6] and in assay [7] were 111 µM, 60 µM and 418 µM, respectively.

In turn, `O=C(Nc1cccc([N+](=O)[O-])c1)Nc1ccc2nnsc2c1` returned an IC50 in assay [3] of 4.8 µM. Same read-out and setting: under `CC(=O)c1ccc(-c2cc(NC(=O)Nc3ccc4nnsc4c3)cc(C(F)(F)F)c2)s1` stands 7.3 µM. Turning to `Nc1ncnc2c1ncn2Cc1cc(-c2ccc(F)c(F)c2)ncc1N1CCC[C@](N)(c2ccccn2)C1`, the IC50 in assay [8] was found to be 0.018 µM; in assay [9], 0.041 µM. `COC(=O)c1cc(NC(=O)Nc2ccc3nnsc3c2)cc(C(=O)OC)c1`: the IC50 was 6.8 µM with NCI-H2228; 3.7 µM in [3]; 5.1 µM in the assay with MDA-MB-231; 4.2 µM in the assay on PC-3; 2.6 µM in the assay on SK-OV-3.

Take `CC(C)N(Cc1ccc(C(=O)Nc2ccncn2)cc1)C(=O)c1ccc2c(c1)OCC(=O)N2`: in assay [4], the Kd was more than 20 µM. Consider `Cn1nnc2ccc(NC(=O)Nc3cccc([N+](=O)[O-])c3)cc21`, for which inhibition in assay [3] was half-maximal at 8.3 µM (IC50). Regarding `CC[C@H](C)C(=O)[C@@]1(N)CCCN(c2cnc(-c3ccc(F)c(F)c3)cc2Cn2cnc3c(N)ncnc32)C1`, the IC50 in [8] is 0.04 µM; in [9] it was 0.034 µM.

As for `CNC(=O)[C@@]1(N)CCCN(c2cnc(-c3cccc(F)c3)cc2Cn2cnc3c(N)ncnc32)C1`, the figures for the IC50 in assay [8] and in [9] were 0.012 µM and 0.078 µM, respectively. In turn, `CC(C)CN[C@@H](CC[C@H](N)C(=O)O)C[C@H]1O[C@@H](n2cnc3c(N)ncnc32)[C@H](O)[C@@H]1O` displayed an IC50 in assay [10] of 1.8 µM.

As for `Nc1ncnc2c1ncn2[C@@H]1O[C@H](C[C@@H](N)CC[C@H](N)C(=O)O)[C@@H](O)[C@H]1O` [SINEFUNGIN], in [10], half-maximal inhibition (IC50) was put at 46 µM.

The values are drawn from ChEMBL document CHEMBL5385898, “Recent advances in nuclear receptor-binding SET domain 2 (NSD2) inhibitors: An update and perspectives” (Eur J Med Chem, 2023).
